Laboratory results reported in ChEMBL document CHEMBL6114947, “Navigating cancer therapy: Harnessing the power of peptide-drug conjugates as precision delivery vehicles” (Eur J Med Chem, 2025).

Key:
PANC-1 = test: Antitumor activity against human PANC-1 cells xenografted in BALB/c mouse assessed as reduction in tumor volume at 2 mg/kg, iv administered once every 2 days and measured on day 74 relative to control; format: functional; parameters: scale not given: the % may be the effect or the level left; details: time 74 day
[1] = Half life in BALB/c mouse plasma at 5 mg/kg, iv by LC-MS/MS analysis

Q: With `COc1cccc2c1C(=O)c1c(O)c3c(c(O)c1C2=O)C[C@@](O)(C(C)=O)C[C@@H]3O[C@H]1C[C@H](N)[C@H](O)[C@H](C)O1` [DAUNORUBICIN] as the compound, how does the Activity (PANC-1) read?
A: 32.2%

Q: For `COc1cccc2c1C(=O)c1c(O)c3c(c(O)c1C2=O)C[C@@](O)(C(=O)CO)C[C@@H]3O[C@H]1C[C@H](N)[C@H](O)[C@H](C)O1` [DOXORUBICIN], which half-life [1] is on record?
A: 29.4 h
